Results published in PubChem BioAssay AID248 (DTP/NCI, 2004).
Several values for one entry are separate records, joined by “and”; a condition that tells them apart may be missing. Identical values can stand only once. Inconclusive results and toxic doses are left out. Cut-off read from the data, not from the text of the source: active = T/C of 150% or more; inactive = T/C below 125%. Square brackets hold non-standard residues; d marks the D form. Peptide text beside a SMILES is read from it. * marks the point of attachment. ξ: configuration not given here. Cbz = O=C(OCc1ccccc1)*; ξP = O=C(O)C1CCCN1

System: L1210 leukemia ip in BDF1 mice, survival T/C
Assay: NCI In Vivo Anticancer Drug Screen. Data for tumor model L1210 Leukemia (intraperitoneal) in B6D2F1 (BDF1) mice
Details: endpoint: mean survival time, higher = longer survival
How it was run: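 Antitumor effect is assessed in tumor-bearing animals. Survival in the compound arm is compared with a vehicle-dosed control arm and expressed as their quotient.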

[1] = dose: 100.0 mg/kg/injection, schedule: Q04DX002 (ip), vehicle: Klucel (hydroxypropylcellulose) (HPC)
[2] = dose: 200.0 mg/kg/injection, schedule: Q04DX002 (ip), vehicle: Klucel (hydroxypropylcellulose) (HPC)
[3] = dose: 400.0 mg/kg/injection, schedule: Q04DX002 (ip), vehicle: Klucel (hydroxypropylcellulose) (HPC)
[4] = dose: 25.0 mg/kg/injection, schedule: Q01DX009 (ip), vehicle: saline
[5] = dose: 50.0 mg/kg/injection, schedule: Q01DX009 (ip), vehicle: saline
[6] = dose: 100.0 mg/kg/injection, schedule: Q04DX003 (ip), vehicle: saline with Tween-80
[7] = dose: 200.0 mg/kg/injection, schedule: Q04DX003 (ip), vehicle: saline with Tween-80
[8] = dose: 400.0 mg/kg/injection, schedule: Q04DX003 (ip), vehicle: saline with Tween-80
[9] = dose: 100.0 mg/kg/injection, schedule: Q04DX003 (ip), vehicle: saline
[10] = dose: 200.0 mg/kg/injection, schedule: Q04DX003 (ip), vehicle: saline
[11] = dose: 100.0 mg/kg/injection, schedule: Q04DX002 (ip), vehicle: saline
[12] = dose: 200.0 mg/kg/injection, schedule: Q04DX002 (ip), vehicle: saline
[13] = dose: 100.0 mg/kg/injection, schedule: Q01DX009 (ip), vehicle: saline

Measured: T/C

CC(C)(O)C(Cc1ccccc1)c1ccccc1 (stereo not drawn)
inactive: dose: 6.25 mg/kg/injection, schedule: Q04DX002 (ip), vehicle: saline with Tween-80 91 % of control | dose: 12.5 mg/kg/injection, schedule: Q04DX002 (ip), vehicle: saline with Tween-80 98 % of control | dose: 25.0 mg/kg/injection, schedule: Q04DX002 (ip), vehicle: saline with Tween-80 102 % of control

COc1ccc(OCCOC(C)=O)cc1
inactive: [1] 107 % of control | [2] 100 % of control | [3] 103 % of control

COC(=O)C1(c2ccccc2)C(c2ccccc2)=C(c2ccccc2)C(c2ccccc2)CC1c1ccccc1 (stereo not drawn)
inactive: [1] 103 % of control | [2] 96 % of control | [3] 92 % of control

CNNC(=O)c1ccncc1
inactive: dose: 62.0 mg/kg/injection, schedule: Q01DX015 (ip), vehicle: water 91 % of control | dose: 125.0 mg/kg/injection, schedule: Q01DX015 (ip), vehicle: water 98 % of control

O=C(CCN1CCCC1)c1ccc(F)cc1
inactive: [4] 109 % of control | [5] 115 % of control

O=C(NCO)NC1NC(=O)NC1=O (stereo not drawn)
inactive: [6] 101 % of control | [7] 101 % of control | [8] 108 % of control

COC(=O)C1CCCN1C(=O)CNC(=O)OCc1ccccc1 (stereo not drawn) (Cbz-Gly-[ξP]-OMe)
inactive: [9] 97 % of control | [10] 101 % of control | dose: 400.0 mg/kg/injection, schedule: Q04DX003 (ip), vehicle: saline 95 % of control

N=c1nc(N)nc2c3ccccc3nnn12
inactive: dose: 75.0 mg/kg/injection, schedule: Q01DX001 (ip), vehicle: other 105 % of control | dose: 150.0 mg/kg/injection, schedule: Q01DX001 (ip), vehicle: other 106 % of control

CNC(=O)OCCOc1ccccc1
inactive: dose: 100.0 mg/kg/injection, schedule: Q01DX001 (ip), vehicle: saline with Tween-80 109 % of control | dose: 100.0 mg/kg/injection, schedule: Q01DX009 (ip), vehicle: saline with Tween-80 105 % of control and 116 % of control | dose: 100.0 mg/kg/injection, schedule: Q04DX002 (ip), vehicle: saline with Tween-80 97 % of control and 89 % of control | dose: 200.0 mg/kg/injection, schedule: Q01DX001 (ip), vehicle: saline with Tween-80 108 % of control | dose: 200.0 mg/kg/injection, schedule: Q01DX009 (ip), vehicle: saline with Tween-80 96 % of control and 101 % of control | dose: 200.0 mg/kg/injection, schedule: Q04DX002 (ip), vehicle: saline with Tween-80 94 % of control and 90 % of control | dose: 400.0 mg/kg/injection, schedule: Q01DX001 (ip), vehicle: saline with Tween-80 111 % of control | dose: 400.0 mg/kg/injection, schedule: Q01DX009 (ip), vehicle: saline with Tween-80 108 % of control and 110 % of control | dose: 400.0 mg/kg/injection, schedule: Q04DX002 (ip), vehicle: saline with Tween-80 119 % of control and 87 % of control

CN(C)c1ccc(/C=N/O)cc1
inactive: [11] 103 % of control | [12] 95 % of control | dose: 400.0 mg/kg/injection, schedule: Q04DX002 (ip), vehicle: saline 95 % of control

CN(C)C(=O)/N=N/C(=O)N(C)C
inactive: [4] 97 % of control | dose: 25.0 mg/kg/injection, schedule: Q04DX003 (ip), vehicle: saline 96 % of control | [5] 106 % of control | dose: 50.0 mg/kg/injection, schedule: Q04DX003 (ip), vehicle: saline 102 % of control | [13] 101 % of control | [9] 102 % of control

CNC(=S)n1ncnc1N
inactive: [4] 102 % of control | [5] 114 % of control | [13] 109 % of control | [9] 104 % of control

NC(=O)Nc1ccccc1F
inactive: [1] 106 % of control | [2] 100 % of control | [3] 100 % of control

O=[N+]([O-])c1cc([N+](=O)[O-])cc(S(=O)(=O)O)c1
inactive: [4] 106 % of control | [5] 105 % of control | [13] 100 % of control and 111 % of control | [9] 105 % of control | [10] 105 % of control

NCCNc1ncnc2c1ncn2C1OC(CO)C(O)C1O (stereo not drawn)
inactive: dose: 6.25 mg/kg/injection, schedule: Q01DX009 (ip), vehicle: saline 115 % of control | dose: 12.5 mg/kg/injection, schedule: Q01DX005 (ip), vehicle: saline 101 % of control | dose: 12.5 mg/kg/injection, schedule: Q01DX009 (ip), vehicle: saline 111 % of control | dose: 25.0 mg/kg/injection, schedule: Q01DX005 (ip), vehicle: saline 100 % of control | [4] 117 % of control | dose: 50.0 mg/kg/injection, schedule: Q01DX005 (ip), vehicle: saline 97 % of control | dose: 100.0 mg/kg/injection, schedule: Q01DX005 (ip), vehicle: saline 86 % of control

CC[N+]1(CN2CCCCC2)CCCCC1
inactive: dose: 12.5 mg/kg/injection, schedule: Q04DX003 (ip), vehicle: Klucel (hydroxypropylcellulose) (HPC) 102 % of control | dose: 25.0 mg/kg/injection, schedule: Q04DX003 (ip), vehicle: Klucel (hydroxypropylcellulose) (HPC) 96 % of control | dose: 50.0 mg/kg/injection, schedule: Q04DX003 (ip), vehicle: Klucel (hydroxypropylcellulose) (HPC) 90 % of control

Oc1ccccc1C=NCc1ccccc1
inactive: dose: 100.0 mg/kg/injection, schedule: Q04DX003 (ip), vehicle: Klucel (hydroxypropylcellulose) (HPC) 100 % of control | dose: 200.0 mg/kg/injection, schedule: Q04DX003 (ip), vehicle: Klucel (hydroxypropylcellulose) (HPC) 92 % of control | dose: 400.0 mg/kg/injection, schedule: Q04DX003 (ip), vehicle: Klucel (hydroxypropylcellulose) (HPC) 96 % of control

CC(C)(C)C1=CC(=O)C(N=[N+]=[N-])=CC1=O
inactive: [11] 94 % of control | [12] 115 % of control

C=Cc1cnc(N)nc1-c1ccccc1
inactive: [6] 90 % of control | [7] 105 % of control | [8] 97 % of control

COc1ccc(OC)c2c(C)cc(Cl)nc12
inactive: dose: 100.0 mg/kg/injection, schedule: Q01DX001 (ip), vehicle: saline 104 % of control | dose: 200.0 mg/kg/injection, schedule: Q01DX001 (ip), vehicle: saline 98 % of control | dose: 400.0 mg/kg/injection, schedule: Q01DX001 (ip), vehicle: saline 110 % of control

CC(C)CCCc1c[nH]c(=O)[nH]c1=O
inactive: dose: 100.0 mg/kg/injection, schedule: Q01DX009 (ip), vehicle: Klucel (hydroxypropylcellulose) (HPC) 105 % of control | dose: 100.0 mg/kg/injection, schedule: Q04DX003 (ip), vehicle: other 103 % of control | dose: 200.0 mg/kg/injection, schedule: Q01DX009 (ip), vehicle: Klucel (hydroxypropylcellulose) (HPC) 97 % of control | dose: 200.0 mg/kg/injection, schedule: Q04DX003 (ip), vehicle: other 101 % of control | dose: 400.0 mg/kg/injection, schedule: Q01DX009 (ip), vehicle: Klucel (hydroxypropylcellulose) (HPC) 97 % of control | dose: 400.0 mg/kg/injection, schedule: Q04DX003 (ip), vehicle: other 117 % of control

c1ccc(C(CN2CCCCC2)c2ccccc2)cc1
inactive: dose: 44.0 mg/kg/injection, schedule: Q01DX Z (ip), vehicle: methylcellulose (MC) 93 % of control | dose: 66.0 mg/kg/injection, schedule: Q01DX Z (ip), vehicle: methylcellulose (MC) 96 % of control | dose: 100.0 mg/kg/injection, schedule: Q01DX Z (ip), vehicle: methylcellulose (MC) 105 % of control

CC(C)CC1NC(=O)C(C(C)C)NC(=O)CC(C)COC(=O)C(CC(C)C)N(C)C(=O)C(C(C)C)NC(=O)C(C(C)C)OC1=O (stereo not drawn)
inactive: dose: 75.0 mg/kg/injection, schedule: Q01DX001 (ip), vehicle: carboxymethylcellulose (CMC) 96 % of control | dose: 150.0 mg/kg/injection, schedule: Q01DX001 (ip), vehicle: carboxymethylcellulose (CMC) 96 % of control
